Assay results taken from ChEMBL document CHEMBL5034015, “Structure-Based Optimization of 3-Phenyl-N-(2-(3-phenylureido)ethyl)thiophene-2-sulfonamide Derivatives as Selective Mcl-1 Inhibitors” (J Med Chem, 2021).
Each block holds one compound with its values, some of them ahead of it. Active and inactive are the calls of the source.

What was measured:
RS4-11 [1] = assay: Induction of apoptosis in human RS4-11 cells assessed as increase in cleaved caspase 3 expression incubated for 48 hrs by western blot analysis; type: functional, cell-based
RS4-11 [2] = assay: Induction of apoptosis in human RS4-11 cells assessed as viable cells at 1 uM measured after 24 hrs by Annexin V/7-AAD and MitoSense Red staining based flow cytometry analysis relative to control (reference value: 94.15 %); type: functional; conditions: read-out: Activity
RS4-11 [3] = assay: Induction of apoptosis in human RS4-11 cells assessed as early apoptotic cells at 1 uM measured after 24 hrs by Annexin V/7-AAD and MitoSense Red staining based flow cytometry analysis relative to control (reference value: 3.75 %); type: functional
RS4-11 [4] = assay: Induction of apoptosis in human RS4-11 cells assessed as late apoptotic cells at 1 uM measured after 24 hrs by Annexin V/7-AAD and MitoSense Red staining based flow cytometry analysis relative to control (reference value: 0.99 %); type: functional
RS4-11 [5] = assay: Induction of apoptosis in human RS4-11 cells assessed as necrotic cells at 1 uM measured after 24 hrs by Annexin V/7-AAD and MitoSense Red staining based flow cytometry analysis relative to control (reference value: 1.11 %); type: functional
RS4-11 [6] = assay: Induction of apoptosis in human RS4-11 cells assessed as increase in cleaved caspase 9 expression incubated for 48 hrs by western blot analysis; type: functional, cell-based
RS4-11 [7] = assay: Induction of apoptosis in human RS4-11 cells assessed as increase in cleaved PARP expression incubated for 48 hrs by western blot analysis; type: functional, cell-based
[8] = molecular target: T1, Induced myeloid leukemia cell differentiation protein Mcl-1 (Homo sapiens, UniProt Q07820); assay: Binding affinity to full length human MCL1 expressed in Escherichia coli BL21 (DE3) at up to 100 uM preincubated for 30 mins followed by 5-FAM-QEDIIIINIARHLAQVGDSMD-RSIPPG tracer addition and measured after 20 mins by fluorescence polarization assay; conditions: dose microM <=100, time 50.0 min
Bcl-2-like protein 1 [9] = molecular target: T2, Bcl-2-like protein 1 (Homo sapiens, UniProt Q07817); assay: Inhibition of biotinylated Bim BH3 peptide binding to GST-tagged human Bcl-xl expressed in Escherichia coli BL21 (DE3) incubated for 1 hr by ELISA
Bcl-2-like protein 1 [10] = molecular target: T2, Bcl-2-like protein 1; assay: Inhibition of FITC-labeled BH3 peptide binding to Bcl-xl (unknown origin) expressed in Escherichia coli BL21 (DE3) incubated for 0.5 hrs by TR-FRET assay
[11] = molecular target: T1, Induced myeloid leukemia cell differentiation protein Mcl-1; assay: Binding affinity to full length human MCL1 expressed in Escherichia coli BL21 (DE3) assessed as inhibition constant preincubated for 30 mins followed by 5-FAM-QEDIIIINIARHLAQVGDSMD-RSIPPG tracer addition and measured after 20 mins by fluorescence polarization assay
HEK-293T = assay: Cytotoxicity against HEK293T cells assessed as reduction in cell viability incubated for 48 hrs by CCK8 assay; conditions: Homo sapiens
RS4-11 [12] = assay: Induction of apoptosis in human RS4-11 cells assessed as viable cells at 20 uM measured after 24 hrs by Annexin V/7-AAD and MitoSense Red staining based flow cytometry analysis relative to control (reference value: 94.15 %); type: functional; conditions: read-out: Activity
RS4-11 [13] = assay: Induction of apoptosis in human RS4-11 cells assessed as early apoptotic cells at 20 uM measured after 24 hrs by Annexin V/7-AAD and MitoSense Red staining based flow cytometry analysis relative to control (reference value: 3.75 %); type: functional
RS4-11 [14] = assay: Induction of apoptosis in human RS4-11 cells assessed as late apoptotic cells at 20 uM measured after 24 hrs by Annexin V/7-AAD and MitoSense Red staining based flow cytometry analysis relative to control (reference value: 0.99 %); type: functional
RS4-11 [15] = assay: Induction of apoptosis in human RS4-11 cells assessed as necrotic cells at 20 uM measured after 24 hrs by Annexin V/7-AAD and MitoSense Red staining based flow cytometry analysis relative to control (reference value: 1.11 %); type: functional
MCF7 = assay: Inhibition of Bcl-2/Bim interaction in human MCF7 cells assessed as disruption of Bcl-2/Bim complex at 10 uM measured after 24 hrs by co-immunoprecipitation based western blot analysis relative to control; type: cell-based
RS4-11 [16] = assay: Antitumor activity against human RS4-11 cells xenografted in NOD/SCID mouse assessed as reduction in tumor volume at 50 mg/kg, ip administered every 2 days for 22 days and measured every 3 days relative to control; type: functional; design: scale not given: the % may be the effect or the level left; conditions: time 22 day
RS4-11 [17] = assay: Antitumor activity against human RS4-11 cells xenografted in NODSCID mouse assessed as inhibition of tumor growth at 12.5 mg/kg, ip administered every 2 days for 22 days and measured every 3 days relative to control; type: functional; design: scale not given: the % may be the effect or the level left; conditions: time 22 day
RS4-11 [18] = assay: Antitumor activity against human RS4-11 cells xenografted in NOD/SCID mouse assessed as inhibition of tumor growth at 25 mg/kg, ip administered every 2 days for 22 days and measured every 3 days relative to control; type: functional; design: scale not given: the % may be the effect or the level left; conditions: time 22 day
[19] = Toxicity in NOD/SCID mouse xenografted with human RS4-11 cells assessed as reduction in body weight at 12.5 to 50 mg/kg, ip administered every 2 days for 22 days; type: organism-based; conditions: in vivo, 528 h, dose 12.5-50 mg/kg, time 22 day
RS4-11 [20] = assay: Antitumor activity against human RS4-11 cells xenografted in SCID mouse assessed as reduction in Ki-67 positive cells administered intraperitoneally for 19 days by immunohistochemical analysis; type: functional, cell-based; conditions: time 19.0 day
Bcl-2-like protein 1 [21] = molecular target: T2, Bcl-2-like protein 1; assay: Binding affinity to full length human Bcl-xl expressed in Escherichia coli BL21 (DE3) at up to 100 uM preincubated for 30 mins followed by 5-FAM-QEDIIIINIARHLAQVGDSMD-RSIPPG tracer addition and measured after 20 mins by fluorescence polarization assay; conditions: dose microM <=100, time 50.0 min
[22] = molecular target: Apoptosis regulator Bcl-2 (Homo sapiens, UniProt P10415); assay: Binding affinity to full length human Bcl-2 expressed in Escherichia coli BL21 (DE3) at up to 100 uM preincubated for 30 mins followed by 5-FAM-QEDIIIINIARHLAQVGDSMD-RSIPPG tracer addition and measured after 20 mins by fluorescence polarization assay; conditions: dose microM <=100, time 50.0 min
[23] = molecular target: Induced myeloid leukemia cell differentiation protein Mcl-1/Bcl-2-like protein 11 (Homo sapiens) (UniProt Q07820+O43521); assay: Inhibition of MCL1/Bim interaction in human MCF7 cells assessed as disruption of MCL1/Bim complex at 10 uM measured after 24 hrs by co-immunoprecipitation based western blot analysis relative to control; type: cell-based
HeLa = assay: cells; conditions: Homo sapiens, 48 h
Description: Cytotoxicity against human HeLa cells assessed as inhibition of cell growth incubated for 48 hrs by CCK8 assay

HL-60 = assay: cells; conditions: Homo sapiens, HL-60, 48 h
Description: Cytotoxicity against human HL-60 cells assessed as inhibition of cell growth incubated for 48 hrs by CCK8 assay

RS4-11 [24] = assay: cells; conditions: Homo sapiens, RS4-11, 48 h
Description: Cytotoxicity against human RS4-11 cells assessed as inhibition of cell growth incubated for 48 hrs by CCK8 assay

T2 sequence (Q07817 whole entry): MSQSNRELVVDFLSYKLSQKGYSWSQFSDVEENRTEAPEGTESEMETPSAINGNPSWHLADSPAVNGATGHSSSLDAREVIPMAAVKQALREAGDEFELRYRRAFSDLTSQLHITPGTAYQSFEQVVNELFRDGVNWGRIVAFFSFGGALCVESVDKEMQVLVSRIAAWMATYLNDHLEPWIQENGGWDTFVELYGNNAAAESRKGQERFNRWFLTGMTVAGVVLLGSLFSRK
T1 sequence (Q07820 whole entry): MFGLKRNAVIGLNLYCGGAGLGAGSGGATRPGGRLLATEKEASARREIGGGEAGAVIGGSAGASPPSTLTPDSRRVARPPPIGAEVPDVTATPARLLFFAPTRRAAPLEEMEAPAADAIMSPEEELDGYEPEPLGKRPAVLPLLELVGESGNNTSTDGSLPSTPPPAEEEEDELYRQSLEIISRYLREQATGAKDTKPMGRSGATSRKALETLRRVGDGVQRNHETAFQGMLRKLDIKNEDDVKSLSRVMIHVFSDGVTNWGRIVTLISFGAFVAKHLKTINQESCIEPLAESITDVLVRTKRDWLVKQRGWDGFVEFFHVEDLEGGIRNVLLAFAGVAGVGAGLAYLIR
Chain of Induced myeloid leukemia cell differentiation protein Mcl-1/Bcl-2-like protein 11 (Homo sapiens) (O43521 whole entry, looked up): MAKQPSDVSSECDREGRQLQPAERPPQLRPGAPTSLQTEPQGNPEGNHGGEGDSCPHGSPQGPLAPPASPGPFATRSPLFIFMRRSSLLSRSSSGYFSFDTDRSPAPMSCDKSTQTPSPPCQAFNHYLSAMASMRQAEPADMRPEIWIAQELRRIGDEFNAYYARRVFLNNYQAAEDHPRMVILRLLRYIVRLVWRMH
Chain of Induced myeloid leukemia cell differentiation protein Mcl-1/Bcl-2-like protein 11 (Homo sapiens) (Q07820 whole entry, looked up): as the sequence (Q07820 whole entry) above
Chain of Apoptosis regulator Bcl-2 (P10415 whole entry): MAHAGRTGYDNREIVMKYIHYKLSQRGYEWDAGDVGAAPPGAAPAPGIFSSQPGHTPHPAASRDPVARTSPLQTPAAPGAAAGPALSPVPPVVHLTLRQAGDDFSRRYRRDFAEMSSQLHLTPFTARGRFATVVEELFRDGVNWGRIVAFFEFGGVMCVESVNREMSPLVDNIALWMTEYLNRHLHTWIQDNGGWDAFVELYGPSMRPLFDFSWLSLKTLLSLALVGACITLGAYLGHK

- Activity [8]: inactive
Compound: CC1(C)CCC(CN2CCN(c3ccc(C(=O)NS(=O)(=O)c4ccc(NCC5CCOCC5)c([N+](=O)[O-])c4)c(Oc4cnc5[nH]ccc5c4)c3)CC2)=C(c2ccc(Cl)cc2)C1 [VENETOCLAX]
- Activity (RS4-11 [1]): Dose-Dependent Effect
- viability at 1 µM (RS4-11 [2]): 0.45%
- Activity (RS4-11 [3]): 10.75%
- Activity (RS4-11 [4]): 88.54%
- Activity (RS4-11 [5]): 0.26%
- Activity (RS4-11 [6]): Dose-Dependent Effect
- Activity (RS4-11 [7]): Dose-Dependent Effect

Compound: O=C(c1ccccc1O)c1[nH]c(Cl)c(Cl)c1-n1c(C(=O)c2ccccc2O)cc(Cl)c1Cl
- IC50 (Bcl-2-like protein 1 [9]): > 80 µM

- Ki (Bcl-2-like protein 1 [10]): > 10 µM
Compound: Cc1cc(OCCCc2c3n(c4c(-c5c(C)nn(C)c5C)c(Cl)ccc24)CCCN(c2cc(C(=O)O)c4ccn(C)c4c2)C3=O)cc(C)c1Cl

- Ki [11]: 4.9 µM
- Activity (Bcl-2-like protein 1 [21]): inactive
- Activity [22]: inactive
- inhibition [23]: 30%
- IC50 (HeLa): 10.2 µM
- IC50 (HL-60): 5.3 µM
- IC50 (RS4-11 [24]): 5.6 µM
Compound: COc1ccc(Oc2cc(C)ccc2-c2ccsc2S(=O)(=O)NCCNC(=O)Nc2cc(C(F)(F)F)cc(C(F)(F)F)c2)cc1OC
- Activity (RS4-11 [1]): Dose-Dependent Effect
- IC50 (HEK-293T): 9 µM
- viability at 20 µM (RS4-11 [12]): 1.39%
- Activity (RS4-11 [13]): 4.15%
- Activity (RS4-11 [14]): 94.21%
- Activity (RS4-11 [15]): 0.24%
- Activity (RS4-11 [6]): Dose-Dependent Effect
- Activity (RS4-11 [7]): Dose-Dependent Effect
- inhibition (MCF7): inactive
- Activity (RS4-11 [16]): 75%
- Activity (RS4-11 [17]): >60%
- Activity (RS4-11 [18]): >60%
- Activity [19]: Non-Toxic
- Activity (RS4-11 [20]): Dose-Dependent Effect
